Experimental data reported in patent US20230210939A1, “CYCLIC PEPTIDE COMPOUNDS AND METHODS OF USE” (priority 2020, published 2023).
Positions of bridges follow the written chain, without caps; N, C: chain ends. Non-standard residues stand in square brackets, D forms with d. Residues, ends and D or L forms follow the SMILES beside them. *: point of attachment. Picolinoyl = O=C(c1ccccn1)*; Aib = CC(C)(N)C(=O)O

Assays:
[1] = test system: TNF-α content in conditioned media of LPS-treated BV2 microglial cells; test: In vitro TNF-α inhibitory activity in LPS-treated BV2 microglial cells; type: cell-based; settings: compound 45 min before LPS, 24 h incubation, TNF-α in supernatant, read-out: IC50 for reducing LPS-induced TNF-α content by half
Experimental: To measure the efficacy of the biological activity of Compound 1, an in vitro assay was employed to measure TNF-α content in conditioned media of cells treated with lipopolysaccharide (LPS) and different concentrations of Compound 1. 1 mg of Compound 1 peptide compound was added to 3.333 mL of physiological saline to make a 189 μM peptide solution which is sterilized by filtration through a 0.22 μm membrane filter. For treatment of cells, threefold serial dilutions were made, yielding concentrations of 189, 63, 21, 7, 2.3, and 0.76 μM peptide solution.
BV2 cells were recovered and passaged more than 3 times. 1.2×10^6 BV2 microglial cells in good growth state and in the logarithmic growth phase were diluted to […] cells/mL with DMEM medium containing 10% FBS, and 400 μL of cell suspension was inoculated into each well of a 48-well cell culture plate. […]

[2] = test system: TNF-α content in the blood of LPS-treated ICR mice; test: In vivo TNF-α inhibitory activity in LPS-treated mice; settings: ICR male mice, IV compound 30 min before IV LPS 5 μg/kg, blood collected 1.5 hours after LPS
Experimental: To measure the efficacy of the biological activity of Compound 1, an in vivo assay was employed to measure TNF-α content in the blood of whole mice treated with lipopolysaccharide (LPS) and different concentrations of Compound 1. 56 ICR male mice, 12-14 g, were acclimated to the animal facility for 7 days and were then randomized into 8 groups with 7 mice/group to receive doses of 0, 0.001, 0.003, 0.01, 0.03, 0.1, 0.3, and 1.0 mg/kg of compound. Each dose group received intravenous (IV) injection of different concentrations of Compound 1 peptide solution at a dosing volume of 10 mL/kg. 30 min later, IV LPS at a dose of 5 μg/kg and at a volume of 10 ml/kg was administered. 1.5 hours after administration of LPS, whole blood was collected from the orbit of ICR mice, centrifuged at 4000 rpm for 10 min, and the supernatant was collected and used for TNF-α content detection from each of the different Compound 1 doses. (TNF-α detection kit, Unitech biological item number: 70-EK282/3-96).

CC(C)CC1NC(=O)C(CC(C)C)NC(=O)C(CCCNC(=N)N)NC(=O)C(CCCCN)NC(=O)C(C)(C)NC(=O)C(CC(C)C)NC(=O)C(CCCCN)NC(=O)C(CCCNC(=N)N)NC(=O)C(CC(C)C)NC(=O)C(NC(=O)C(CO)NC(=O)C(C)NC(=O)c2ccccn2)CSSCC(C(N)=O)NC1=O (stereo not drawn) [Compound 1, picolinyl-Ala-Ser-cyclo[Cys-LRKL-Aib-KRLL-Cys]-NH2] (Picolinoyl-ASCLRKL[Aib]KRLLC-NH2; disulfide 3-13; configuration not given here) was tested, and the IC50 [1] was about 1020 nM and the “ED50 (Effective Dose at which a 50% reduction in blood TNF-α content was found)” value [2] was 0.045 mg/kg.
